The structures appear in SMILES notation. Bounds are passed on as bounds.

Experimental findings from US20100016371A1, “Indole Compounds” (Glaxo Group Limited, priority 2006, published 2010) are described below.

Experiment [1] concerns the target T1, human EP3 receptor (Homo sapiens, UniProt P43115).
T1 construct: expressed in transfected cells; host or cells: CHO-K1 cells, pCIN vector
T1 sequence (P43115 1-390): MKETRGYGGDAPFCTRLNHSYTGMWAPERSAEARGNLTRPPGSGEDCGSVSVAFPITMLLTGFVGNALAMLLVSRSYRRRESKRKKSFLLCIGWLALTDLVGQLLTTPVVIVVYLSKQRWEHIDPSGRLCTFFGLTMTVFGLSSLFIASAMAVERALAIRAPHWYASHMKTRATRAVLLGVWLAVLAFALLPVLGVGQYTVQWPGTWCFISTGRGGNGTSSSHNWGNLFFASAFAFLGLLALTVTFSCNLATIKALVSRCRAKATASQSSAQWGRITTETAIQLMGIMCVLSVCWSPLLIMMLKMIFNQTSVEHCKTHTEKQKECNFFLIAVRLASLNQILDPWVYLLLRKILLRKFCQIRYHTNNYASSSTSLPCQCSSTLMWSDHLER
The experiment can be described thus: human EP3 calcium mobilisation assay (FLIPR, CHO-K1 cells). It is filed as cell-based. The note with it: antagonism of PGE2-induced calcium mobilisation, CHO-K1 cells expressing EP3; averages of a number of experiments; read-out: functional pKi (converted). The procedure:
(§1) Biological Activity at EP1 and EP3 Receptors
Briefly, the antagonist properties of compounds are assessed by their ability to inhibit the mobilisation of intracellular calcium ([Ca^2+]i) in response to activation of EP1 or EP3 receptors by the natural agonist hormone prostaglandin E2 (PGE2). Increasing concentrations of antagonist reduce the amount of calcium that a given concentration of PGE2 can mobilise. The net effect is to displace the PGE2 concentration-effect curve to higher concentrations of PGE2. The amount of calcium produced is assessed using a calcium-sensitive fluorescent dye such as Fluo-4, AM and a suitable instrument such as a Fluorimetric Imaging Plate Reader (FLIPR). Increasing amounts of [Ca^2+]i produced by receptor activation increase the amount of fluorescence produced by the dye and give rise to an increasing signal. The signal may be detected using the FLIPR instrument and the data generated may be analysed with suitable curve-fitting software. […]
For assay, cells are harvested using a proprietary reagent that dislodges cells such as Versene. Cells are re-suspended in a suitable quantity of fresh culture media for introduction into a 384-well plate. […]
The data so generated may be analysed by means of a computerised curve-fitting routine. […]

The target of experiment [2] is T2, human EP1 receptor (Homo sapiens, UniProt P34995).
T2 construct: expressed in transfected cells; host or cells: CHO-K1 cells, pCIN vector
T2 sequence (P34995 1-402): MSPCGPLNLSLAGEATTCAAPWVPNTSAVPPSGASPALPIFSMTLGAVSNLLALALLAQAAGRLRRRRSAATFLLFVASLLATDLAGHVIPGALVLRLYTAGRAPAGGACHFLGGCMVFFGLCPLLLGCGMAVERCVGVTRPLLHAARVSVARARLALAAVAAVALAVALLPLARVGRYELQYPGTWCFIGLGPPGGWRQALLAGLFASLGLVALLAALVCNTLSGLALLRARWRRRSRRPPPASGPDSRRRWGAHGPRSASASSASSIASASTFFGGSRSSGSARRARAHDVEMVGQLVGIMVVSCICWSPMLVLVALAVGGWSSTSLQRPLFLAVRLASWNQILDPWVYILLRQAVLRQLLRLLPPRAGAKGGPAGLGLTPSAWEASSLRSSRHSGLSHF
Kind of experiment: human EP1 calcium mobilisation assay (FLIPR, CHO-K1 cells). Type of experiment: cell-based. The note with it: antagonism of PGE2-induced calcium mobilisation, CHO-K1 cells expressing EP1; averages of a number of experiments; read-out: functional pKi (converted). On the procedure: as §1
Briefly, the antagonist properties of compounds are assessed by their ability to inhibit the mobilisation of intracellular calcium ([Ca^2+]i) in response to activation of EP1 or EP3 receptors by the natural agonist hormone prostaglandin E2 (PGE2). Increasing concentrations of antagonist reduce the amount of calcium that a given concentration of PGE2 can mobilise. The net effect is to displace the PGE2 concentration-effect curve to higher concentrations of PGE2. The amount of calcium produced is assessed using a calcium-sensitive fluorescent dye such as Fluo-4, AM and a suitable instrument such as a Fluorimetric Imaging Plate Reader (FLIPR). Increasing amounts of [Ca^2+]i produced by receptor activation increase the amount of fluorescence produced by the dye and give rise to an increasing signal. The signal may be detected using the FLIPR instrument and the data generated may be analysed with suitable curve-fitting software.
The human EP1 or EP3 calcium mobilisation assay (hereafter referred to as ‘the calcium assay’) utilises Chinese hamster ovary-K1 (CHO-K1) cells into which a stable (pCIN; BioTechniques 20(1996): 102-110) vector containing either EP1 or EP3 cDNA has previously been transfected. Cells are cultured in suitable flasks containing culture medium such as DMEM:F-12 supplemented with 10% v/v foetal calf serum, 2 mM L-glutamine, 0.25 mg/ml geneticin, 100 μM flurbiprofen and 10 μg/ml puromycin.
For assay, cells are harvested using a proprietary reagent that dislodges cells such as Versene. Cells are re-suspended in a suitable quantity of fresh culture media for introduction into a 384-well plate. Following incubation for 24 hours at 37° C. the culture media is replaced with a medium containing Fluo-4 and the detergent pluronic acid, and a further incubation takes place. Concentrations of compounds are then added to the plate in order to construct concentration-effect curves. This may be performed on the FLIPR in order to assess the agonist properties of the compounds. Concentrations of PGE2 are then added to the plate in order to assess the antagonist properties of the compounds.
The data so generated may be analysed by means of a computerised curve-fitting routine. The concentration of compound that elicits a half-maximal inhibition of the calcium mobilisation induced by PGE2 (pIC50) may then be estimated.

On to `CC(C)C(=O)c1cn(-c2nc(C(=O)O)cs2)c2cc(Cl)ccc12` [Example 7, 2-[6-Chloro-3-(2-methylpropanoyl)-1H-indol-1-yl]-1,3-thiazole-4-carboxylic acid], for which the Ki was no less than 2000 nM in experiment [1] and no more than 100 nM in experiment [2].
